Assay results as given in patent US12077503B2, “Substituted cyclic amides and their use as herbicides” (FMC CORPORATION, priority 2015, dated 2024).

Assays:
Format in all cases: in vivo
[1] = tested on: barnyardgrass (Echinochloa crus-galli); assay: Test G Pre-Emergence Protocol; conditions: Echinochloa crus-galli, pre-emergence, 312 h, evaluated after 13 days; for pest or weed control at 15.625 g/ha: 15.625 g ai/ha, read-out: Barnyard grass damage rating (100=total damage to plant; 0=no damage to plant); for pest or weed control at 62.5 g/ha: 62.5 g ai/ha, 100=total damage to plant, 0=no damage to plant, read-out: plant damage rating, Barnyardgrass; for pest or weed control at 250 g/ha: 250 g ai/ha, read-out: Barnyardgrass damage rating (100=total damage to plant; 0=no damage to plant)
Outline: (§1)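 Herbicidal effect was rated 13 days post-application on a scale where 100 equals total damage. Spraying took place the day after sowing, using 15.625, 62.5 or 250 g/ha of compound in a 50:50 acetone/water solution with 0.5% Tween 20.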

corn (Zea mays) [2] = assay: Test G Pre-Emergence Protocol; conditions: Zea mays, pre-emergence, 312 h, evaluated after 13 days; for plant injury at 15.625 g/ha: 15.625 g ai/ha; for plant injury at 15.625 g/ha / plant injury at 250 g/ha: read-out: Corn damage rating (100=total damage to plant; 0=no damage to plant); for plant injury at 62.5 g/ha: 62.5 g ai/ha, 100=total damage to plant, 0=no damage to plant, read-out: plant damage rating, Corn; for plant injury at 250 g/ha: 250 g ai/ha
Outline: as §1

[3] = tested on: giant foxtail (Setaria faberi); assay: Test G Pre-Emergence Protocol; conditions: Setaria faberi, pre-emergence, 312 h, evaluated after 13 days; for pest or weed control at 15.625 g/ha: 15.625 g ai/ha; for pest or weed control at 15.625 g/ha / pest or weed control at 250 g/ha: read-out: Foxtail, Giant damage rating (100=total damage to plant; 0=no damage to plant); for pest or weed control at 62.5 g/ha: 62.5 g ai/ha, 100=total damage to plant, 0=no damage to plant, read-out: plant damage rating, Foxtail, Giant; for pest or weed control at 250 g/ha: 250 g ai/ha
Outline: as §1

[4] = tested on: ivy-leaved morning glory (Ipomoea hederacea); assay: Test G Pre-Emergence Protocol; conditions: Ipomoea, pre-emergence, 312 h, evaluated after 13 days; for pest or weed control at 15.625 g/ha: 15.625 g ai/ha, read-out: Morning-glory, Ivy-leaved damage rating (100=total damage to plant; 0=no damage to plant); for pest or weed control at 62.5 g/ha: 62.5 g ai/ha, 100=total damage to plant, 0=no damage to plant, read-out: plant damage rating, Morningglory, Ivy-leaved; for pest or weed control at 250 g/ha: 250 g ai/ha, read-out: Morningglory, Ivy-leaved damage rating (100=total damage to plant; 0=no damage to plant)
Outline: as §1

[5] = tested on: redroot pigweed (Amaranthus retroflexus); assay: Test G Pre-Emergence Protocol; conditions: Amaranthus retroflexus, pre-emergence, 312 h, evaluated after 13 days; for pest or weed control at 15.625 g/ha: 15.625 g ai/ha; for pest or weed control at 15.625 g/ha / pest or weed control at 250 g/ha: read-out: Pigweed, Redroot damage rating (100=total damage to plant; 0=no damage to plant); for pest or weed control at 62.5 g/ha: 62.5 g ai/ha, 100=total damage to plant, 0=no damage to plant, read-out: plant damage rating, Pigweed, Redroot; for pest or weed control at 250 g/ha: 250 g ai/ha
Outline: as §1

[6] = tested on: velvetleaf (Abutilon theophrasti); assay: Test G Pre-Emergence Protocol; conditions: Abutilon theophrasti, pre-emergence, 312 h, evaluated after 13 days; for pest or weed control at 15.625 g/ha: 15.625 g ai/ha; for pest or weed control at 15.625 g/ha / pest or weed control at 250 g/ha: read-out: Velvetleaf damage rating (100=total damage to plant; 0=no damage to plant); for pest or weed control at 62.5 g/ha: 62.5 g ai/ha, 100=total damage to plant, 0=no damage to plant, read-out: plant damage rating, Velvetleaf; for pest or weed control at 250 g/ha: 250 g ai/ha
Outline: as §1

[7] = tested on: barnyardgrass (Echinochloa crus-galli); assay: Test G Post-Emergence Protocol; conditions: Echinochloa crus-galli, post-emergence, 312 h; for pest or weed control at 15.625 g/ha: 15.625 g ai/ha, evaluated after 13 days (100=total damage to plant; 0=no damage to plant), read-out: Barnyardgrass damage rating; for pest or weed control at 62.5 g/ha: 62.5 g ai/ha, read-out: Barnyardgrass damage rating (100=total damage to plant; 0=no damage to plant); for pest or weed control at 62.5 g/ha / pest or weed control at 250 g/ha: evaluated after 13 days; for pest or weed control at 250 g/ha: 250 g ai/ha, read-out: damage to plant, Barnyardgrass (100=total damage to plant; 0=no damage to plant)
Outline: (§2)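 A glasshouse post-emergence test: 8-day-old plants sprayed at 15.625, 62.5 or 250 g/ha, then grown at 24/16 °C day/night with 14 h light and 65% humidity. Damage rated 13 days later, 0–100.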

corn (Zea mays) [8] = assay: Test G Post-Emergence Protocol; conditions: Zea mays, post-emergence, 312 h; for plant injury at 15.625 g/ha: 15.625 g ai/ha, evaluated after 13 days (100=total damage to plant; 0=no damage to plant), read-out: Corn damage rating; for plant injury at 62.5 g/ha: 62.5 g ai/ha, read-out: Corn damage rating (100=total damage to plant; 0=no damage to plant); for plant injury at 62.5 g/ha / plant injury at 250 g/ha: evaluated after 13 days; for plant injury at 250 g/ha: 250 g ai/ha, read-out: damage to plant, Corn (100=total damage to plant; 0=no damage to plant)
Outline: as §2

[9] = tested on: giant foxtail (Setaria faberi); assay: Test G Post-Emergence Protocol; conditions: Setaria faberi, post-emergence, 312 h; for pest or weed control at 15.625 g/ha: 15.625 g ai/ha, evaluated after 13 days (100=total damage to plant; 0=no damage to plant), read-out: Foxtail, Giant damage rating; for pest or weed control at 62.5 g/ha: 62.5 g ai/ha, read-out: Foxtail, Giant damage rating (100=total damage to plant; 0=no damage to plant); for pest or weed control at 62.5 g/ha / pest or weed control at 250 g/ha: evaluated after 13 days; for pest or weed control at 250 g/ha: 250 g ai/ha, read-out: damage to plant, Foxtail, Giant (100=total damage to plant; 0=no damage to plant)
Outline: as §2

[10] = tested on: ivy-leaved morning glory (Ipomoea hederacea); assay: Test G Post-Emergence Protocol; conditions: Ipomoea, post-emergence, 312 h; for pest or weed control at 15.625 g/ha: 15.625 g ai/ha, evaluated after 13 days (100=total damage to plant; 0=no damage to plant), read-out: Morningglory, Ivy-leaved damage rating; for pest or weed control at 62.5 g/ha: 62.5 g ai/ha, read-out: Morningglory, Ivy-leaved damage rating (100=total damage to plant; 0=no damage to plant); for pest or weed control at 62.5 g/ha / pest or weed control at 250 g/ha: evaluated after 13 days; for pest or weed control at 250 g/ha: 250 g ai/ha, read-out: damage to plant, Morningglory, Ivy-leaved (100=total damage to plant; 0=no damage to plant)
Outline: as §2

[11] = tested on: redroot pigweed (Amaranthus retroflexus); assay: Test G Post-Emergence Protocol; conditions: Amaranthus retroflexus, post-emergence, 312 h; for pest or weed control at 15.625 g/ha: 15.625 g ai/ha, evaluated after 13 days (100=total damage to plant; 0=no damage to plant), read-out: Pigweed, Redroot damage rating; for pest or weed control at 62.5 g/ha: 62.5 g ai/ha, read-out: Pigweed, Redroot damage rating (100=total damage to plant; 0=no damage to plant); for pest or weed control at 62.5 g/ha / pest or weed control at 250 g/ha: evaluated after 13 days; for pest or weed control at 250 g/ha: 250 g ai/ha, read-out: damage to plant, Pigweed, Redroot (100=total damage to plant; 0=no damage to plant)
Outline: as §2

[12] = tested on: velvetleaf (Abutilon theophrasti); assay: Test G Post-Emergence Protocol; conditions: Abutilon theophrasti, post-emergence, 312 h; for pest or weed control at 15.625 g/ha: 15.625 g ai/ha, evaluated after 13 days (100=total damage to plant; 0=no damage to plant), read-out: Velvetleaf damage rating; for pest or weed control at 62.5 g/ha: 62.5 g ai/ha, read-out: Velvetleaf damage rating (100=total damage to plant; 0=no damage to plant); for pest or weed control at 62.5 g/ha / pest or weed control at 250 g/ha: evaluated after 13 days; for pest or weed control at 250 g/ha: 250 g ai/ha, read-out: damage to plant, Velvetleaf (100=total damage to plant; 0=no damage to plant)
Outline: as §2

Row | Structure (SMILES) | pest or weed control at 15.625 g/ha [1] | pest or weed control at 62.5 g/ha [1] | pest or weed control at 250 g/ha [1] | plant injury at 15.625 g/ha (corn (Zea mays) [2]) | plant injury at 62.5 g/ha (corn (Zea mays) [2]) | plant injury at 250 g/ha (corn (Zea mays) [2]) | pest or weed control at 15.625 g/ha [3] | pest or weed control at 62.5 g/ha [3] | pest or weed control at 250 g/ha [3] | pest or weed control at 15.625 g/ha [4] | pest or weed control at 62.5 g/ha [4] | pest or weed control at 250 g/ha [4] | pest or weed control at 15.625 g/ha [5] | pest or weed control at 62.5 g/ha [5] | pest or weed control at 250 g/ha [5] | pest or weed control at 15.625 g/ha [6] | pest or weed control at 62.5 g/ha [6] | pest or weed control at 250 g/ha [6] | pest or weed control at 15.625 g/ha [7] | pest or weed control at 62.5 g/ha [7] | also measured
1 | CN1C[C@@H](c2ccc(C(F)(F)F)cc2)[C@H](C(=O)Nc2cccc3cn[nH]c23)C1=O (racemic) [Compound 1605] | 0% | 0% | 0% | 0% | 0% | 0% | 0% | 0% | 0% | 0% | 0% | 0% | 0% | 0% | 0% | 0% | 0% | 0% | 0% | 0% | pest or weed control at 250 g/ha [7]: 30%; plant injury at 15.625 g/ha (corn (Zea mays) [8]): 0%; plant injury at 62.5 g/ha (corn (Zea mays) [8]): 0%; plant injury at 250 g/ha (corn (Zea mays) [8]): 10%; pest or weed control at 15.625 g/ha [9]: 0%; pest or weed control at 62.5 g/ha [9]: 0%; pest or weed control at 250 g/ha [9]: 10%; pest or weed control at 15.625 g/ha [10]: 0%; pest or weed control at 62.5 g/ha [10]: 0%; pest or weed control at 250 g/ha [10]: 0%; pest or weed control at 15.625 g/ha [11]: 0%; pest or weed control at 62.5 g/ha [11]: 20%; pest or weed control at 250 g/ha [11]: 30%; pest or weed control at 15.625 g/ha [12]: 0%; pest or weed control at 62.5 g/ha [12]: 0%; pest or weed control at 250 g/ha [12]: 10%
2 | CN1C[C@@H](c2ccc(C(F)(F)F)cc2)[C@H](C(=O)Nc2ccncc2Cl)C1=O (racemic) [Compound 1608] | 0% | 0% | 0% | 0% | 0% | 0% | 0% | 0% | 0% | 0% | 0% | 0% | 0% | 10% | 20% | 0% | 0% | 0% | 0% | 10% | pest or weed control at 250 g/ha [7]: 10%; plant injury at 15.625 g/ha (corn (Zea mays) [8]): 0%; plant injury at 62.5 g/ha (corn (Zea mays) [8]): 10%; plant injury at 250 g/ha (corn (Zea mays) [8]): 20%; pest or weed control at 15.625 g/ha [9]: 0%; pest or weed control at 62.5 g/ha [9]: 10%; pest or weed control at 250 g/ha [9]: 60%; pest or weed control at 15.625 g/ha [10]: 40%; pest or weed control at 62.5 g/ha [10]: 30%; pest or weed control at 250 g/ha [10]: 40%; pest or weed control at 15.625 g/ha [11]: 0%; pest or weed control at 62.5 g/ha [11]: 10%; pest or weed control at 250 g/ha [11]: 20%; pest or weed control at 15.625 g/ha [12]: 0%; pest or weed control at 62.5 g/ha [12]: 0%; pest or weed control at 250 g/ha [12]: 0%
3 | CCc1nc(NC(=O)[C@@H]2C(=O)N(C)C[C@H]2c2ccc(C(F)(F)F)cc2)n[nH]1 (racemic) [Compound 1610] | 0% | 0% | 0% | 0% | 0% | 0% | 0% | 0% | 0% | 0% | 0% | 0% | 0% | 0% | 0% | 0% | 0% | 0% | 0% | 0% | pest or weed control at 250 g/ha [7]: 0%; plant injury at 15.625 g/ha (corn (Zea mays) [8]): 0%; plant injury at 62.5 g/ha (corn (Zea mays) [8]): 0%; plant injury at 250 g/ha (corn (Zea mays) [8]): 0%; pest or weed control at 15.625 g/ha [9]: 0%; pest or weed control at 62.5 g/ha [9]: 0%; pest or weed control at 250 g/ha [9]: 0%; pest or weed control at 15.625 g/ha [10]: 0%; pest or weed control at 62.5 g/ha [10]: 0%; pest or weed control at 250 g/ha [10]: 0%; pest or weed control at 15.625 g/ha [11]: 0%; pest or weed control at 62.5 g/ha [11]: 0%; pest or weed control at 250 g/ha [11]: 0%; pest or weed control at 15.625 g/ha [12]: 0%; pest or weed control at 62.5 g/ha [12]: 0%; pest or weed control at 250 g/ha [12]: 0%
